Source: patent US10596259B2, “Tumor radiosensitization with monomethyl auristatin E (MMAE) and derivatives thereof” (The Regents of the University of California, priority 2015, dated 2020)
“Also recorded” adds a separate entry of the source. Read-outs that look alike come from different tables or passages of the source. Non-standard residues stand in square brackets, D forms with d. Residues, ends and D or L forms follow the SMILES beside them. *: point of attachment. Dolaproine = CO[C@@H]([C@@H]1CCCN1)[C@@H](C)C(=O)O; Dil = CC[C@H](C)[C@H](NC)[C@@H](CC(=O)O)OC; X1 = C[C@@H](N*)[C@@H](O)c1ccccc1; NMeV = CN[C@H](C(=O)O)C(C)C

How the values were obtained:
PANC-1 tumor xenografts = assay: In vivo tumor xenograft growth with or without IR; set-up: species or system mice
Description: HCT-116 or PANC-1 tumor xenografts were established and tumor growth was measured with digital calipers. Tumor volume was calculated using the formula as ½*Length*Width^2. Mice were randomized into groups once the average tumor volume reached 250 mm^3. Mice were assigned to groups: Vehicle, ACPP-cRGD-MMAE, fractionated IR or the combination. ACPP-cRGD-MMAE lyophilized powder was suspended in sterile deionized water just prior to tail vein injection. MMAE doses and IR fractionation are as indicated in the Results.
HCT-116 or PANC-1 tumor growth was measured with digital calipers. Tumor volume was calculated using the formula as ½×length×width^2. Mice were randomized into groups as indicated in Results once the average tumor volume reached >200 mm^3. Free MMAE was injected on an equimolar basis to ACPP-cRGD-MMAE.

HCT-116 cells [1] = assay: Cell cycle analysis by FACS with PI staining; type: cell-based, Human
Description: (§1) Cells were treated with 0, 1, 2, or 5 nM MMAE for 24 hours and then fixed in methanol. Cells were treated with RNAse, stained with propidium iodide and analyzed by FACS using FloJo software.
(§2) Cells were treated with MMAE for 24 hours and then fixed in methanol. Cells were treated with RNAse, stained with propidium iodide (PI), and analyzed by FACS using FlowJo software.

PANC-1 cells [2] = assay: Cell cycle analysis by FACS with PI staining; type: cell-based, Human; conditions: 2 nmol/L MMAE, 24 hours
Description: as §1, §2

cyclin B = assay: Immunoblot for cell phase-specific cyclins in HCT-116 cells; type: cell-based, Human; conditions: 5 nmol/L MMAE, 24-hour exposure
Description: (§3) MMAE- and IR-treated cells were harvested and lysed in RIPA buffer with protease and phosphatase inhibitors (Roche). Thirty micrograms of lysate underwent electrophoresis using 4% to 12% Bis-Tris gels (Life Technologies), transferred to polyvinylidene difluoride (PVDF) membranes, and incubated with indicated primary antibodies (Cell Signaling Technology). Blots were developed by ECL (Pierce).
Because MMAE blocks cells in the radiosensitive G2-M phase of the cell cycle, we tested whether MMAE specifically interacted with IR. We hypothesized that while a short exposure to MMAE would not influence radiosensitivity, prolonged MMAE exposure with cells accumulating in G2-M would increase sensitivity to IR. DNA double-stand breaks are a hallmark of IR damage and can be measured by neutral comet assay. HCT-116 cells were treated with 5 nmol/L MMAE for varying lengths of time (0, 2, 4, or 24 hours) and then irradiated (FIG. 34A).

CAL-27 cells [3] = assay: Alamar Blue cell viability assay; type: cell-based, Human; conditions: 72 hours
Description: (§4) Alamar Blue (resazurin) was added to the cells and allowed to incubate for 2 hrs at 37° C. Plates were analyzed using a plate reader with fluorescence measured at 560 nm.

779E cells = assay: Neutral comet assay (DNA double strand breaks); type: cell-based, Human; conditions: MMAE overnight in combination with IR
Description: Cells were treated for 24 hours with indicated doses of MMAE and then irradiated with 6 Gy. Cells were harvested 15 minutes post IR, suspended in agarose gel and lysed per assay directions (Trevigen). Samples underwent electrophoresis under neutral conditions and were then stained with Sybr Green. Comet tails were counted in multiple fields (>60 cells per sample) and analyzed using CometScore (TriTek Corp).
Cells were treated for indicated length and doses of MMAE followed by 6 Gy. Cells were harvested 15 minutes after IR and underwent neutral electrophoresis (Trevigen). Comet tails were counted in multiple fields (>60 cells per sample) and analyzed using CometScore (TriTek Corp).

HCT-116 cells [4] = assay: Alamar Blue cell viability assay; type: cell-based, Human
Description: Alamar Blue (also known as resazurin) was added to the cells and allowed to incubate for 2 hrs at 37° C. Plates were analyzed using a plate reader with fluorescence measured at 560 nm. For irradiated cells, cells were treated with MMAE overnight followed by 6 Gy.
as §4
Cells were plated in 96-well plates and exposed to MMAE or paclitaxel for 72 hours and analyzed at 560 nm. For irradiated cells, cells were treated with MMAE overnight followed by 6 Gy.

CHK1 (pS345) = assay: Immunoblot for DNA damage checkpoint activation in HCT-116 cells; type: cell-based, Human; conditions: MMAE 24 hours, then 6 Gy
Description: as §3
(§5) Because MMAE reduced clonogenic cell survival following IR, we tested whether MMAE increased apoptosis in irradiated cells. HCT-116 cells were treated with MMAE for 24 hours followed by IR. Cells were collected 24 hours after IR and the sub-G1 population (apoptotic) was measured. […] Because MMAE increased DNA double-strand breaks in irradiated cells (FIG. 34), we then evaluated whether MMAE altered the DNA damage response in irradiated cells. HCT-116 cells were treated with MMAE for 24 hours followed by 6 Gy. Cells were collected 1 hour after IR, and activation of the DNA damage checkpoint proteins CHK1 (pS345) and CHK2 (pT68) was ascertained (FIG. 36B). […] Upon DNA damage, histone H2A becomes phosphorylated at S139, γH2AX.

HCT-116 cells [5] = assay: Apoptosis (sub-G1 population) after MMAE and IR; type: cell-based, Human
Description: as §2, §5

CAL-27 cells [6] = assay: Cell cycle analysis by flow cytometry (PI); type: cell-based, Human; conditions: 5 nM, 24 hrs
Description: Cells were treated with RNAse, stained with propidium iodide (PI) and analyzed by FACS using FloJo software.

LN-229 cells = assay: Alamar Blue cell viability assay; type: cell-based; conditions: 72 hours
Description: as §4

HCT-116 cells [7] = assay: Clonogenic survival assay with IR; type: cell-based, Human
Description: (§6) Cells were treated with 0, 1, 2, or 5 nM of MMAE for 24 hours and then irradiated with 0, 2, or 6 Gy. Following IR, cells were counted, re-plated at varying cell numbers in drug free media. Colonies were counted […]. Colonies were then fixed and stained with crystal violet to quantify colonies.
(§7) Cells were treated with MMAE for 24 hours and then irradiated with 0 to 8 Gy. Following IR, cells were replated in drug-free media. Colonies formed over 10 to 14 days and were counted.

PANC-1 cells [8] = assay: Clonogenic survival assay with IR; type: cell-based, Human
Description: as §6, §7

## CC[C@H](C)[C@@H]([C@@H](CC(=O)N1CCC[C@H]1[C@H](OC)[C@@H](C)C(=O)N[C@H](C)[C@@H](O)c1ccccc1)OC)N(C)C(=O)[C@@H](NC(=O)[C@@H](NC)C(C)C)C(C)C [MMAE, monomethyl auristatin E] (H-[NMeV]V[Dil][Dolaproine]-X1)
PANC-1 tumor xenografts; day 30, + IR
  V(end)/V(0) ≤ 1, PANC-1, expt 1: 0%
PANC-1 tumor xenografts; day 30, no IR
  V(end)/V(0) ≤ 1, PANC-1, expt 1: 0%
PANC-1 tumor xenografts; expt 1, day 20, no IR
  tumor xenografts smaller than starting tumor volume: None
PANC-1 tumor xenografts; expt 1, day 20, with IR
  tumor xenografts less than or equal to starting tumor volume: 4/10
PANC-1 tumor xenografts; expt 1: 6 nmoles days 0 and 1 plus IR 3 Gy days 1 and 2, listed as free MMAE
  tumor regression vs IR or free MMAE alone: increased tumor xenograft regression; also recorded: profound tumor xenograft regression
PANC-1 tumor xenografts; expt 1: iv days 0 and 1, 6 nmoles/day, no IR, day 30
  average tumor volume relative to untreated controls: 75%
PANC-1 tumor xenografts; expt 1: iv days 0 and 1, 6 nmoles/day, no IR, listed as free MMAE
  tumor growth vs untreated control: modest, but statistically significant growth delay; also recorded: small but statistically significant growth delay
HCT-116 cells [1]; 1 nmol/L MMAE, 24 hours
  cell-cycle profile: did not alter the cell-cycle profile
HCT-116 cells [1]; 5 nM (5 nmol/L) MMAE, 24 hrs
  cells blocked in G2/M: 50%
PANC-1 cells [2]
  cells blocked in G2-M: 50%
Cyclin B
  accumulation of cyclins: specific accumulation of the G2-M cyclin B
CAL-27 cells [3]
  IC50: 1.1 nM
779E cells
  comet tail length: significantly increased comet tail length
HCT-116 cells [4]; 72 hours exposure (Example 3), read-out: IC50
  IC50: 1.7 nM
HCT-116 cells [4]; 72 hours exposure, read-out: IC50
  IC50: 1.66 nM
HCT-116 cells [4]; MMAE alone, no IR (Example 3), read-out: IC50 for MMAE
  IC50: 1.6 nM
HCT-116 cells [4]; MMAE alone, no IR, continuous exposure, viability 72 hours after initiation, read-out: IC50 for MMAE
  IC50: 1.58 nM
HCT-116 cells [4]; MMAE and 6 Gy IR (Example 3), read-out: IC50 for MMAE
  IC50: 0.8 nM
HCT-116 cells [4]; MMAE overnight then 6 Gy IR, continuous exposure, viability at 72 hours, read-out: IC50 for MMAE
  IC50: 0.78 nM
CHK1 (pS345)
  CHK1 activation in irradiated cells: enhanced CHK1 activation
HCT-116 cells [5]; MMAE 24 hours then IR, collected 24 hours after IR
  apoptosis, IR combined with MMAE vs MMAE: no further increase in apoptosis
HCT-116 cells [5]; MMAE alone, 24 hours
  apoptosis vs vehicle: significant increase in apoptosis
CAL-27 cells [6]
  cells in G2/M: 60%
LN-229 cells
  IC50: 3.8 nM
HCT-116 cells [7]; 1 nM MMAE overnight
  surviving fraction at 2 Gy (SF2) vs vehicle: not significantly different
HCT-116 cells [7]; 5 nM MMAE overnight, then irradiated, re-plated drug free
  clonogenic survival curve vs vehicle: loss of the shoulder region of the survival curve at 2 Gy; also recorded: increased tumor cell kill at doses as low as 2 Gy
HCT-116 cells [7]; 2 and 5 nM MMAE overnight
  surviving fraction at 2 Gy (SF2) vs vehicle: significant reduction
PANC-1 cells [8]; 2 nM MMAE overnight, then irradiated, re-plated drug free
  clonogenic survival curve vs vehicle: loss of the shoulder region of the survival curve at 2 Gy; also recorded: increased tumor cell kill at doses as low as 2 Gy
PANC-1 cells [8]; 5 nM MMAE
  colony formation: Too few colonies formed
PANC-1 cells [8]; 1 or 2 nM MMAE overnight, 2 Gy
  surviving fraction at 2 Gy (SF2) vs vehicle: significantly reduced
